According to ChEMBL document CHEMBL5537158, “Polymyxins with Potent Antibacterial Activity against Colistin-Resistant Pathogens: Fine-Tuning Hydrophobicity with Unnatural Amino Acids” (J Med Chem, 2024):
In brackets after ≈: the same amount, converted by molar mass. Positions of bridges follow the written chain, without caps; N, C: chain ends. Non-standard residues stand in square brackets, D forms with d. Residues, ends and D or L forms follow the SMILES beside them. *: point of attachment. Phe(3,4,5-F3) = N[C@@H](Cc1cc(F)c(F)c(F)c1)C(=O)O; Phe(4-CF3) = N[C@@H](Cc1ccc(C(F)(F)F)cc1)C(=O)O; dPhe(F5) = N[C@H](Cc1c(F)c(F)c(F)c(F)c1F)C(=O)O; Phe(4-Br) = N[C@@H](Cc1ccc(Br)cc1)C(=O)O; Phe(4-Cl) = N[C@@H](Cc1ccc(Cl)cc1)C(=O)O; Phe(4-F) = N[C@@H](Cc1ccc(F)cc1)C(=O)O; dPhe(3-F) = N[C@H](Cc1cccc(F)c1)C(=O)O; dPhe(4-F) = N[C@H](Cc1ccc(F)cc1)C(=O)O; Phe(2-F) = N[C@@H](Cc1ccccc1F)C(=O)O; d(hhPhe) = N[C@H](CCCc1ccccc1)C(=O)O; dPhe(2-F) = N[C@H](Cc1ccccc1F)C(=O)O; d(hPhe) = N[C@H](CCc1ccccc1)C(=O)O; Octanoyl = CCCCCCCC(=O)*; Dab = NCC[C@H](N)C(=O)O

Assays:
Pseudomonas aeruginosa [1] = experiment: Antimicrobial activity against colistin resistant Pseudomonas aeruginosa 7197/19 assessed as bacterial growth inhibition incubated for 20 hrs by broth microdilution method; type: functional
Escherichia coli = experiment: Antibacterial activity against Escherichia coli ATCC 25922 assessed as bacterial growth inhibition incubated for 20 hrs by broth microdilution method; type: functional
Acinetobacter baumannii [2] = experiment: Antimicrobial activity against Acinetobacter baumannii ATCC 19606 assessed as bacterial growth inhibition incubated for 20 hrs by broth microdilution method; type: functional
Pseudomonas aeruginosa [3] = experiment: Antimicrobial activity against Pseudomonas aeruginosa PAO1 assessed as bacterial growth inhibition incubated for 20 hrs by broth microdilution method; type: functional
Acinetobacter baumannii [4] = experiment: Antimicrobial activity against colistin resistant Acinetobacter baumannii ATCC 3658/17 assessed as bacterial growth inhibition incubated for 20 hrs by broth microdilution method; type: functional
[5] = Hemolytic activity in human RBC at 400 ug/ml after 1 hr; type: toxicity, cell-based, Erythrocyte; details: red blood cells (erythrocytes), at 400 µg/mL, read-out: Activity

Structure (SMILES)	MIC (Pseudomonas aeruginosa [1])	MIC (Escherichia coli)	MIC (Acinetobacter baumannii [2])	MIC (Pseudomonas aeruginosa [3])	MIC (Acinetobacter baumannii [4])	hemolysis at 1 h, 400 ug/ml [5]
CCCCCCCC(=O)N[C@@H](CCN)C(=O)N[C@H](C(=O)N[C@@H](CCN)C(=O)N[C@H]1CCNC(=O)[C@H]([C@@H](C)O)NC(=O)[C@H](CCN)NC(=O)[C@H](CCN)NC(=O)[C@H](CC(C)C)NC(=O)[C@@H](CCCc2ccccc2)NC(=O)[C@H](CCN)NC1=O)[C@@H](C)O (Octanoyl-[Dab]T[Dab][Dab][Dab][d(hhPhe)]L[Dab][Dab]T; lactam 4-C)	0.5 µg/mL (≈ 0.411 µM)	< 0.125 µg/mL	< 0.125 µg/mL			
CCCCCCCC(=O)N[C@@H](CCN)C(=O)N[C@H](C(=O)N[C@@H](CCN)C(=O)N[C@H]1CCNC(=O)[C@H]([C@@H](C)O)NC(=O)[C@H](CCN)NC(=O)[C@H](CCN)NC(=O)[C@H](CC(C)C)NC(=O)[C@@H](Cc2cccc(F)c2)NC(=O)[C@H](CCN)NC1=O)[C@@H](C)O (Octanoyl-[Dab]T[Dab][Dab][Dab][dPhe(3-F)]L[Dab][Dab]T; lactam 4-C)			0.25 µg/mL (≈ 0.207 µM)	0.25 µg/mL (≈ 0.207 µM)	4 µg/mL (≈ 3.31 µM)	
CC(=O)N[C@H](Cc1cccc(F)c1)C(=O)N[C@@H](CCN)C(=O)N[C@H](C(=O)N[C@@H](CCN)C(=O)N[C@H]1CCNC(=O)[C@H]([C@@H](C)O)NC(=O)[C@H](CCN)NC(=O)[C@H](CCN)NC(=O)[C@H](CC(C)C)NC(=O)[C@@H](Cc2ccccc2)NC(=O)[C@@H](CCN)NC1=O)[C@H](C)O		0.25 µg/mL (≈ 0.197 µM)	1 µg/mL (≈ 0.787 µM)	0.25 µg/mL (≈ 0.197 µM)	16 µg/mL (≈ 12.6 µM)	< 10%
CCCCCCCC(=O)N[C@@H](CCN)C(=O)N[C@H](C(=O)N[C@@H](CCN)C(=O)N[C@H]1CCNC(=O)[C@H]([C@@H](C)O)NC(=O)[C@H](CCN)NC(=O)[C@H](CCN)NC(=O)[C@H](Cc2ccc(Cl)cc2)NC(=O)[C@@H](CC(C)C)NC(=O)[C@H](CCN)NC1=O)[C@@H](C)O (Octanoyl-[Dab]T[Dab][Dab][Dab][dL][Phe(4-Cl)][Dab][Dab]T; lactam 4-C)			0.125 µg/mL (≈ 0.102 µM)	0.25 µg/mL (≈ 0.204 µM)	1 µg/mL (≈ 0.817 µM)	
CCCCCCCC(=O)N[C@@H](CCN)C(=O)N[C@H](C(=O)N[C@@H](CCN)C(=O)N[C@H]1CCNC(=O)[C@H]([C@@H](C)O)NC(=O)[C@H](CCN)NC(=O)[C@H](CCN)NC(=O)[C@H](CC(C)C)NC(=O)[C@@H](Cc2ccccc2F)NC(=O)[C@H](CCN)NC1=O)[C@@H](C)O (Octanoyl-[Dab]T[Dab][Dab][Dab][dPhe(2-F)]L[Dab][Dab]T; lactam 4-C)		0.123 µg/mL (≈ 0.102 µM)	0.06 µg/mL (≈ 0.0497 µM)		0.5 µg/mL (≈ 0.414 µM)	
CCCCCCCC(=O)N[C@@H](CCN)C(=O)N[C@H](C(=O)N[C@@H](CCN)C(=O)N[C@H]1CCNC(=O)[C@H]([C@@H](C)O)NC(=O)[C@H](CCN)NC(=O)[C@H](CCN)NC(=O)[C@H](Cc2cc(F)c(F)c(F)c2)NC(=O)[C@@H](CC(C)C)NC(=O)[C@H](CCN)NC1=O)[C@@H](C)O (Octanoyl-[Dab]T[Dab][Dab][Dab][dL][Phe(3,4,5-F3)][Dab][Dab]T; lactam 4-C)			< 0.125 µg/mL	0.25 µg/mL (≈ 0.201 µM)	2 µg/mL (≈ 1.61 µM)	
CCCCCCCC(=O)N[C@@H](CCN)C(=O)N[C@H](C(=O)N[C@@H](CCN)C(=O)N[C@H]1CCNC(=O)[C@H]([C@@H](C)O)NC(=O)[C@H](CCN)NC(=O)[C@H](CCN)NC(=O)[C@H](Cc2ccc(C(F)(F)F)cc2)NC(=O)[C@@H](CC(C)C)NC(=O)[C@H](CCN)NC1=O)[C@@H](C)O (Octanoyl-[Dab]T[Dab][Dab][Dab][dL][Phe(4-CF3)][Dab][Dab]T; lactam 4-C)			< 0.125 µg/mL	0.25 µg/mL (≈ 0.199 µM)	1 µg/mL (≈ 0.795 µM)	
CCCCCCCC(=O)N[C@@H](CCN)C(=O)N[C@H](C(=O)N[C@@H](CCN)C(=O)N[C@H]1CCNC(=O)[C@H]([C@@H](C)O)NC(=O)[C@H](CCN)NC(=O)[C@H](CCN)NC(=O)[C@H](Cc2ccc(Br)cc2)NC(=O)[C@@H](CC(C)C)NC(=O)[C@H](CCN)NC1=O)[C@@H](C)O (Octanoyl-[Dab]T[Dab][Dab][Dab][dL][Phe(4-Br)][Dab][Dab]T; lactam 4-C)			0.25 µg/mL (≈ 0.197 µM)	0.25 µg/mL (≈ 0.197 µM)	1 µg/mL (≈ 0.788 µM)	
CCCCCCCC(=O)N[C@@H](CCN)C(=O)N[C@H](C(=O)N[C@@H](CCN)C(=O)N[C@H]1CCNC(=O)[C@H]([C@@H](C)O)NC(=O)[C@H](CCN)NC(=O)[C@H](CCN)NC(=O)[C@H](CC(C)C)NC(=O)[C@@H](Cc2c(F)c(F)c(F)c(F)c2F)NC(=O)[C@H](CCN)NC1=O)[C@@H](C)O (Octanoyl-[Dab]T[Dab][Dab][Dab][dPhe(F5)]L[Dab][Dab]T; lactam 4-C) [listing 1 of 2 here]		< 0.125 µg/mL	< 0.125 µg/mL	0.25 µg/mL (≈ 0.195 µM)	0.5 µg/mL (≈ 0.391 µM)	
CC(=O)N[C@H](Cc1ccc(F)cc1)C(=O)N[C@@H](CCN)C(=O)N[C@H](C(=O)N[C@@H](CCN)C(=O)N[C@H]1CCNC(=O)[C@H]([C@@H](C)O)NC(=O)[C@H](CCN)NC(=O)[C@H](CCN)NC(=O)[C@H](CC(C)C)NC(=O)[C@@H](Cc2ccccc2)NC(=O)[C@@H](CCN)NC1=O)[C@H](C)O		0.25 µg/mL (≈ 0.197 µM)	2 µg/mL (≈ 1.57 µM)		16 µg/mL (≈ 12.6 µM)	< 10%
CCCCCCCC(=O)N[C@@H](CCN)C(=O)N[C@H](C(=O)N[C@@H](CCN)C(=O)N[C@H]1CCNC(=O)[C@H]([C@@H](C)O)NC(=O)[C@H](CCN)NC(=O)[C@H](CCN)NC(=O)[C@H](CC(C)C)NC(=O)[C@@H](Cc2c(F)c(F)c(F)c(F)c2F)NC(=O)[C@H](CCN)NC1=O)[C@@H](C)O (Octanoyl-[Dab]T[Dab][Dab][Dab][dPhe(F5)]L[Dab][Dab]T; lactam 4-C) [listing 2 of 2 here]						< 10%
CCCCCCCC(=O)N[C@@H](CCN)C(=O)N[C@H](C(=O)N[C@@H](CCN)C(=O)N[C@H]1CCNC(=O)[C@H]([C@@H](C)O)NC(=O)[C@H](CCN)NC(=O)[C@H](CCN)NC(=O)[C@H](Cc2ccc(F)cc2)NC(=O)[C@@H](CC(C)C)NC(=O)[C@H](CCN)NC1=O)[C@@H](C)O (Octanoyl-[Dab]T[Dab][Dab][Dab][dL][Phe(4-F)][Dab][Dab]T; lactam 4-C)						< 10%
CCCCCCCC(=O)N[C@@H](CCN)C(=O)N[C@H](C(=O)N[C@@H](CCN)C(=O)N[C@H]1CCNC(=O)[C@H]([C@@H](C)O)NC(=O)[C@H](CCN)NC(=O)[C@H](CCN)NC(=O)[C@H](CC(C)C)NC(=O)[C@@H](CCc2ccccc2)NC(=O)[C@H](CCN)NC1=O)[C@@H](C)O (Octanoyl-[Dab]T[Dab][Dab][Dab][d(hPhe)]L[Dab][Dab]T; lactam 4-C)		0.25 µg/mL (≈ 0.208 µM)		0.25 µg/mL (≈ 0.208 µM)	4 µg/mL (≈ 3.32 µM)	
CCCCCCCC(=O)N[C@@H](CCN)C(=O)N[C@H](C(=O)N[C@@H](CCN)C(=O)N[C@H]1CCNC(=O)[C@H]([C@@H](C)O)NC(=O)[C@H](CCN)NC(=O)[C@H](CCN)NC(=O)[C@H](Cc2ccccc2F)NC(=O)[C@@H](CC(C)C)NC(=O)[C@H](CCN)NC1=O)[C@@H](C)O (Octanoyl-[Dab]T[Dab][Dab][Dab][dL][Phe(2-F)][Dab][Dab]T; lactam 4-C)						< 10%
CCCCCCCC(=O)N[C@@H](CCN)C(=O)N[C@H](C(=O)N[C@@H](CCN)C(=O)N[C@H]1CCNC(=O)[C@H]([C@@H](C)O)NC(=O)[C@H](CCN)NC(=O)[C@H](CCN)NC(=O)[C@H](CC(C)C)NC(=O)[C@@H](Cc2ccc(F)cc2)NC(=O)[C@H](CCN)NC1=O)[C@@H](C)O (Octanoyl-[Dab]T[Dab][Dab][Dab][dPhe(4-F)]L[Dab][Dab]T; lactam 4-C)						< 10%
CCCCCCCC(=O)N[C@@H](CCN)C(=O)N[C@H](C(=O)N[C@@H](CCN)C(=O)N[C@H]1CCNC(=O)[C@H]([C@@H](C)O)NC(=O)[C@H](CCN)NC(=O)[C@H](CCN)NC(=O)[C@H](CC(C)C)NC(=O)[C@@H](Cc2ccc(Br)cc2)NC(=O)[C@H](CCN)NC1=O)[C@@H](C)O						< 10%
